Experiment: Differential scanning calorimetry (DSC) of niacinamide and its 2% blends with silicones
Format: physicochemical
Method: To further understand the difference in interaction between ionically modified silicone and control/Silsoft silicone gel, differential scanning calorimetry (DSC) studies were carried out on pure active-niacinamide, and its blends with silsoft silicone and ionically modified silicone. 2% Niacinamide blends were prepared by thoroughly mixing Niacinamide with above silicones using spatula followed by high-speed mixing in Flack-Tek for 5 minutes. The free Niacinamide and Niacinamide loaded Silsoft silicone gel and ionically modified silicone were subjected to a heating and cooling cycle under nitrogen atmosphere. The DSC thermograms are show in FIG. 2.

- ΔH (heat change associated with the melting of Niacinamide) (nitrogen atmosphere): 218.7 J/g
- % Crystallinity (crystalline Niacinamide) (relative to pure niacinamide): 100%
Structure (SMILES): NC(=O)c1cccnc1 [Niacinamide, niacinamide]
